From patent EP2997966A1, “Naphthyl Sulfonamide Pyrrolidine Derivatives as KEAP-1 Modulators for the Treatment of Diabetes, Obesity, Dyslipidemia and Related Disorders” (SANOFI, priority 2014, dated 2016) come the findings set out here.

T1 sequence (Q14145 321-609): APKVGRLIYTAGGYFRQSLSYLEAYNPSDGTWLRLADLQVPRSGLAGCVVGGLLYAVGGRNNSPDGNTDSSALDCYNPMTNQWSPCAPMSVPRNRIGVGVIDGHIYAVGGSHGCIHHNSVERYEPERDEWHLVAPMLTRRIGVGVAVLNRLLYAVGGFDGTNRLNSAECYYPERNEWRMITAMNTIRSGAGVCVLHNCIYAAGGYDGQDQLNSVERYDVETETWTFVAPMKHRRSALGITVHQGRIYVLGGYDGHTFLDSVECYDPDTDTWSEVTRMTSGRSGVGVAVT

One experiment concerns the target T1, human Keap1 kelch domain (amino acids Ala321-Thr609) (Homo sapiens, UniProt Q14145).
T1 construct: human Keap1 kelch domain (amino acids Ala321-Thr609)
As to the kind of experiment: Keap1-Nrf2 peptide binding assay (fluorescence polarisation). The conditions noted are these: binding to fluorescently labeled human Nrf2 peptide; 20 nM Keap1 kelch domain, 50 nM peptide. Here is the method:
Keap1-Nrf2 peptide binding assay
Two microliters of test compound in reaction buffer (phosphate-buffered saline, 2 mM DL-dithiothreitol, 0.015 % (v/v) Brij-35) containing 6 % (v/v) DMSO were mixed with two microliters of the Keap1 kelch domain in reaction buffer in a black 384-well small volume microtiter plate and incubated at ambient temperature for 15 minutes. Thereafter, two microliters were added of the fluorescently labeled Nrf2 peptide in reaction buffer, and the mixture was incubated for a further 30 minutes at ambient temperature. Final concentrations of the Keap1 kelch domain and the fluorescently labeled Nrf2 peptide were 20 nM and 50 nM, respectively.
Fluorescence polarization (FP) was measured at excitation and emission wavelengths of 635 nm and 660 nm, respectively. Positive controls for binding (two microliters of reaction buffer containing 6 % (v/v) DMSO instead of test compound in the same buffer) and negative controls (as positive controls, but without Keap1 kelch domain) were included on each microtiter plate.
In general terms: Fluorescence polarisation rises when a labelled molecule tumbles more slowly, as on binding a larger partner.
In the case of `Cc1nc(C)c(S(=O)(=O)Nc2ccc(N3CC[C@H](C(=O)O)C3)c3ccccc23)s1` [Example 24, (3S)-1-[4-[(2,4-dimethylthiazol-5-yl)sulfonylamino]-1-naphthyl]pyrrolidine-3-carboxylic acid], the IC50 (as a rule, the concentration that gives 50% inhibition) was 4300 nM.

Take `Cc1cc(C)c(C)c(S(=O)(=O)Nc2ccc(N3CCCC(C(=O)O)C3)c3ncccc23)c1C` (centres unmarked) [Example 15, 1-[5-[(2,3,5,6-tetramethylphenyl)sulfonylamino]-8-quinolyl]piperidine-3-carboxylic acid; 2,2,2-trifluoroacetic acid]: the half-maximal inhibitory concentration (IC50) was determined as 24000 nM.

In turn, `Cc1ccc(Cl)cc1S(=O)(=O)Nc1ccc(N2CC[C@@H](C(=O)O)C2)c2ccccc12` [Example 43, (3R)-1-[4-[(5-chloro-2-methylphenyl)sulfonylamino]-1-naphthyl]pyrrolidine-3-carboxylic acid] had a half-inhibitory concentration (IC50) of 1200 nM.

`O=C(O)[C@@H]1CCN(c2ccc(NS(=O)(=O)c3cc(F)cc(F)c3Cl)c3ccccc23)C1` [Example 46, (3R)-1-[4-[(2-chloro-3,5-difluorophenyl)sulfonylamino]-1-naphthyl]pyrrolidine-3-carboxylic acid]: the concentration for half-maximal inhibition (IC50) was 7400 nM.

In turn, `Cc1nn(C)c(C)c1S(=O)(=O)Nc1ccc(N2CC[C@@H](C(=O)O)C2)c2ccccc12` [Example 38, (3R)-1-[4-[(1,3,5-trimethylpyrazol-4-yl)sulfonylamino]-1-naphthyl]pyrrolidine-3-carboxylic acid] registered an IC50 of 900 nM.

The compound `Cc1c(S(=O)(=O)Nc2ccc(N3CC[C@@H](C(=O)O)C3)c3ncccc23)c2ccccc2n1C` [Example 71, (3R)-1-[5-[(1,2-dimethylindol-3-yl)sulfonylamino]-8-quinolyl]pyrrolidine-3-carboxylic acid] returned an IC50 of 1100 nM.

On to `COc1ccc(S(=O)(=O)Nc2ccc(N3CC[C@@H](C(=O)O)C3)c3ccccc23)c(OC)c1` [Example 47, (3R)-1-[4-[(2,4-dimethoxyphenyl)sulfonylamino]-1-naphthyl]pyrrolidine-3-carboxylic acid], for which the IC50 was found to be 6100 nM.

For `Cc1nn(C)c(Cl)c1S(=O)(=O)Nc1ccc(N2CC[C@@H](C(=O)O)C2)c2ncccc12` [Example 52, (3R)-1-[5-[(5-chloro-1,3-dimethyl-pyrazol-4-yl)sulfonylamino]-8-quinolyl]pyrrolidine-3-carboxylic acid], the 50% inhibitory concentration (IC50) was 2700 nM.

`Cc1nn(C)c(C)c1S(=O)(=O)Nc1ccc(N2CC[C@H](C(=O)O)C2)c2ccccc12` [Example 22, (3S)-1-[4-[(1,3,5-trimethylpyrazol-4-yl)sulfonylamino]-1-naphthyl]pyrrolidine-3-carboxylic acid] returned a concentration for half-maximal inhibition (IC50) of 4500 nM.

`O=C(O)[C@H]1CCN(c2ccc(NS(=O)(=O)c3ccc(Cl)c(C(F)(F)F)c3)c3ccccc23)C1` [Example 23, (3S)-1-[4-[[4-chloro-3-(trifluoromethyl)phenyl]sulfonylamino]-1-naphthyl]pyrrolidine-3-carboxylic acid]: the IC50 worked out at 8500 nM.

`CCCn1ncc(S(=O)(=O)Nc2ccc(N3CC[C@@H](C(=O)O)C3)c3ccccc23)c1C` [Example 54, (3R)-1-[4-[(5-methyl-1-propyl-pyrazol-4-yl)sulfonylamino]-1-naphthyl]pyrrolidine-3-carboxylic acid] showed a 50% inhibitory concentration (IC50) of 1800 nM.

On to `O=C(O)[C@@H]1CCN(c2ccc(NS(=O)(=O)c3cc(F)c(F)cc3Cl)c3ccccc23)C1` [Example 45, (3R)-1-[4-[(2-chloro-4,5-difluorophenyl)sulfonylamino]-1-naphthyl]pyrrolidine-3-carboxylic acid], for which the half-maximal inhibitory concentration (IC50) was found to be 4500 nM.

The same experiment, now with this note: binding to fluorescently labeled human Nrf2 peptide; 20 nM Keap1 kelch domain, 50 nM peptide; read-out: IC50.
As to `O=C(O)[C@H]1CCN(c2ccc(NS(=O)(=O)c3cc(Cl)cc(Cl)c3)c3ccccc23)C1` [Example 17, (3S)-1-[4-[(3,5-dichlorophenyl)sulfonylamino]-1-naphthyl]pyrrolidine-3-carboxylic acid], the half-inhibitory concentration (IC50) stood at 2900 nM.

Take `O=C(O)[C@@H]1CCN(c2ccc(NS(=O)(=O)c3cccc(Cl)c3Cl)c3ccccc23)C1` [Example 35, (3R)-1-[4-[(2,3-dichlorophenyl)sulfonylamino]-1-naphthyl]pyrrolidine-3-carboxylic acid]: the IC50 was 1800 nM.

`O=C(O)[C@H]1CCN(c2ccc(NS(=O)(=O)c3cc(Cl)sc3Cl)c3ccccc23)C1` [Example 18, (3S)-1-[4-[(2,5-dichloro-3-thienyl)sulfonylamino]-1-naphthyl]pyrrolidine-3-carboxylic acid]: the half-inhibitory concentration (IC50) was 9000 nM.

Take `O=C(O)[C@@H]1CCN(c2ccc(NS(=O)(=O)c3cc(Cl)cc(Cl)c3)c3ccccc23)C1` [Example 33, (3R)-1-[4-[(3,5-dichlorophenyl)sulfonylamino]-1-naphthyl]pyrrolidine-3-carboxylic acid]: the half-inhibitory concentration (IC50) is 1700 nM.

Consider `O=C(O)[C@@H]1CCN(c2ccc(NS(=O)(=O)c3cc(Cl)sc3Cl)c3ccccc23)C1` [Example 34, (3R)-1-[4-[(2,5-dichloro-3-thienyl)sulfonylamino]-1-naphthyl]pyrrolidine-3-carboxylic acid], for which the IC50 amounted to 2900 nM.

For `CCCCCCCCn1nc(C)c(S(=O)(=O)Nc2ccc(N3CC[C@@H](C(=O)O)C3)c3ncccc23)c1C` [Example 73], the IC50 was 1600 nM.

As for `Cc1c(S(=O)(=O)Nc2ccc(N3CC[C@H](C(=O)O)C3)c3ccccc23)cnn1C1CCCC1` [Example 30, (3S)-1-[4-[(1-cyclopentyl-5-methyl-pyrazol-4-yl)sulfonylamino]-1-naphthyl]pyrrolidine-3-carboxylic acid], the half-maximal inhibitory concentration (IC50) was determined as 4100 nM.

With `O=C(O)[C@@H]1CCN(c2ccc(NS(=O)(=O)c3ccc(Cl)cc3Cl)c3ccccc23)C1` [Example 12, (3R)-1-[4-[(2,4-dichlorophenyl)sulfonylamino]-1-naphthyl]pyrrolidine-3-carboxylic acid], the concentration for half-maximal inhibition (IC50) came to 1300 nM.

For the compound `COc1ccc(F)c(S(=O)(=O)Nc2ccc(N3CC[C@@H](C(=O)O)C3)c3ccccc23)c1` [Example 44, (3R)-1-[4-[(2-fluoro-5-methoxyphenyl)sulfonylamino]-1-naphthyl]pyrrolidine-3-carboxylic acid], the IC50 came out at 2500 nM.

Consider `Cc1c(S(=O)(=O)Nc2ccc(N3CC[C@@H](C(=O)O)C3)c3ccccc23)c2ccccc2n1C` [Example 63, (3R)-1-[4-[(1,2-dimethylindol-3-yl)sulfonylamino]-1-naphthyl]pyrrolidine-3-carboxylic acid], for which the IC50 came to 260 nM.

With `Cc1cc(C)c(C)c(S(=O)(=O)Nc2ccc(N3CCC[C@@H](C(=O)O)C3)c3ccccc23)c1C` [Example 58, (3R)-1-[4-[(2,3,5,6-tetramethylphenyl)sulfonylamino]-1-naphthyl]piperidine-3-carboxylic acid], the IC50 stood at 270 nM.

As for `Cc1c(S(=O)(=O)Nc2ccc(N3CC[C@@H](C(=O)O)C3)c3ccccc23)cnn1C1CCCC1` [Example 50, (3R)-1-[4-[(1-cyclopentyl-5-methyl-pyrazol-4-yl)sulfonylamino]-1-naphthyl]pyrrolidine-3-carboxylic acid], the IC50 amounted to 2800 nM.

For the compound `Cc1c(Cl)cccc1S(=O)(=O)Nc1ccc(N2CC[C@@H](C(=O)O)C2)c2ccccc12` [Example 32, (3R)-1-[4-[(3-chloro-2-methylphenyl)sulfonylamino]-1-naphthyl]pyrrolidine-3-carboxylic acid], the half-maximal inhibitory concentration (IC50) came to 800 nM.

For the compound `Cc1cc(C)c(C)c(S(=O)(=O)Nc2ccc(N3CCCC(C(=O)O)C3)c3ccccc23)c1C` (centres unmarked) [Example 5, 1-[4-[(2,3,5,6-tetramethylphenyl)sulfonylamino]-1-naphthyl]piperidine-3-carboxylic acid; 2,2,2-trifluoroacetic acid], the half-inhibitory concentration (IC50) turned out to be 500 nM.

For `Cc1nn(C)c(Cl)c1S(=O)(=O)Nc1ccc(N2CCC(C(=O)O)C2)c2ccccc12` (centres unmarked) [Example 4, 1-[4-[(5-chloro-1,3-dimethyl-pyrazol-4-yl)sulfonylamino]-1-naphthyl]pyrrolidine-3-carboxylic acid], the IC50 was 1200 nM.

For the compound `CCCCn1cc(S(=O)(=O)Nc2ccc(N3CC[C@@H](C(=O)O)C3)c3ccccc23)c(C)n1` [Example 13, (3R)-1-[4-[(1-butyl-3-methyl-pyrazol-4-yl)sulfonylamino]-1-naphthyl]pyrrolidine-3-carboxylic acid], the 50% inhibitory concentration (IC50) turned out to be 2300 nM.

For `Cc1cc(C)c(C)c(S(=O)(=O)Nc2ccc(N3CCC(C)(C(=O)O)C3)c3ccccc23)c1C` (centres unmarked) [Example 9, 3-methyl-1-[4-[(2,3,5,6-tetramethylphenyl)sulfonylamino]-1-naphthyl]pyrrolidine-3-carboxylic acid], the 50% inhibitory concentration (IC50) came out at 800 nM.

As for `Cc1c(S(=O)(=O)Nc2ccc(N3CC[C@@H](C(=O)O)C3)c3ncccc23)sc2ccc(Cl)cc12` [Example 72, (3R)-1-[5-[(5-chloro-3-methyl-benzothiophen-2-yl)sulfonylamino]-8-quinolyl]pyrrolidine-3-carboxylic acid], the IC50 was 400 nM.

Turning to `O=C(O)[C@@H]1CCN(c2ccc(NS(=O)(=O)c3ccc(Cl)c(C(F)(F)F)c3)c3ccccc23)C1` [Example 40, (3R)-1-[4-[[4-chloro-3-(trifluoromethyl)phenyl]sulfonylamino]-1-naphthyl]pyrrolidine-3-carboxylic acid], the 50% inhibitory concentration (IC50) was found to be 5000 nM.

As for `Cc1cc(C)c(C)c(S(=O)(=O)Nc2ccc(C3CCCC3C(=O)O)c3ccccc23)c1C` (centres unmarked) [Example 1, 2-[4-[(2,3,5,6-tetramethylphenyl)sulfonylamino]-1-naphthyl]cyclopentanecarboxylic acid], the half-maximal inhibitory concentration (IC50) came to 3100 nM.
